Laboratory results as given in the CheMixHub viscosity set.
± gives the uncertainty stated by the source.

Experiment: xn = mol fraction of the nth substance listed

CC(=O)Oc1ccccc1C(=O)O + CCC(C)O
viscosity [mPa·s], 101 kPa
Settings | x1 = 0.0007 | x1 = 0.00094 | x1 = 0.00118 | x1 = 0.00141 | x1 = 0.00165 | x1 = 0.00189 | x1 = 0.00236
293.15 K | 3.623 ± 0.082 | 3.624 ± 0.082 | 3.626 ± 0.082 | 3.627 ± 0.082 | 3.628 ± 0.082 | 3.63 ± 0.082 | 3.632 ± 0.082
298.15 K | 3.014 ± 0.069 | 3.015 ± 0.069 | 3.015 ± 0.069 | 3.016 ± 0.069 | 3.017 ± 0.069 | 3.018 ± 0.069 | 3.02 ± 0.069
303.15 K | 2.525 ± 0.058 | 2.526 ± 0.058 | 2.527 ± 0.058 | 2.527 ± 0.058 | 2.528 ± 0.058 | 2.529 ± 0.059 | 2.531 ± 0.059
308.15 K | 2.12 ± 0.05 | 2.121 ± 0.05 | 2.122 ± 0.05 | 2.123 ± 0.05 | 2.123 ± 0.05 | 2.124 ± 0.05 | 2.125 ± 0.05
310.15 K | 1.974 ± 0.046 | 1.975 ± 0.046 | 1.976 ± 0.046 | 1.976 ± 0.047 | 1.977 ± 0.047 | 1.978 ± 0.047 | 1.979 ± 0.047
313.15 K | 1.792 ± 0.043 | 1.793 ± 0.043 | 1.794 ± 0.043 | 1.795 ± 0.043 | 1.796 ± 0.043 | 1.797 ± 0.043 | 1.798 ± 0.043

CC1COC(=O)O1 (stereo unspecified) + CN(C)C=O
101.33 kPa
Settings | viscosity [mPa·s]
298.15 K, x1 = 0.1053 | 0.89 ± 0.006
298.15 K, x1 = 0.1593 | 0.942 ± 0.006
298.15 K, x1 = 0.2227 | 1.004 ± 0.007
298.15 K, x1 = 0.2607 | 1.047 ± 0.007
298.15 K, x1 = 0.3155 | 1.107 ± 0.007
298.15 K, x1 = 0.3624 | 1.164 ± 0.007
298.15 K, x1 = 0.4248 | 1.246 ± 0.008
298.15 K, x1 = 0.4476 | 1.278 ± 0.008
298.15 K, x1 = 0.5094 | 1.37 ± 0.009
298.15 K, x1 = 0.5658 | 1.462 ± 0.009
298.15 K, x1 = 0.6334 | 1.582 ± 0.01
298.15 K, x1 = 0.659 | 1.63 ± 0.01
298.15 K, x1 = 0.7108 | 1.742 ± 0.011
298.15 K, x1 = 0.7559 | 1.835 ± 0.012
298.15 K, x1 = 0.8147 | 1.983 ± 0.012
298.15 K, x1 = 0.8705 | 2.117 ± 0.013
298.15 K, x1 = 0.9299 | 2.284 ± 0.014
298.15 K, x1 = 0.954 | 2.357 ± 0.015
308.15 K, x1 = 0.0453 | 0.742 ± 0.005
308.15 K, x1 = 0.1078 | 0.787 ± 0.005
308.15 K, x1 = 0.1606 | 0.828 ± 0.005
308.15 K, x1 = 0.2114 | 0.87 ± 0.006
308.15 K, x1 = 0.2565 | 0.91 ± 0.006
308.15 K, x1 = 0.2989 | 0.95 ± 0.006
308.15 K, x1 = 0.3551 | 1.005 ± 0.007
308.15 K, x1 = 0.4045 | 1.058 ± 0.007
308.15 K, x1 = 0.4505 | 1.109 ± 0.007
308.15 K, x1 = 0.4988 | 1.167 ± 0.008
308.15 K, x1 = 0.5351 | 1.213 ± 0.008
308.15 K, x1 = 0.6158 | 1.33 ± 0.009
308.15 K, x1 = 0.6532 | 1.38 ± 0.009
308.15 K, x1 = 0.7153 | 1.48 ± 0.009
308.15 K, x1 = 0.7499 | 1.539 ± 0.01
308.15 K, x1 = 0.802 | 1.638 ± 0.01
308.15 K, x1 = 0.8517 | 1.731 ± 0.011
308.15 K, x1 = 0.9033 | 1.841 ± 0.012
318.15 K, x1 = 0.049 | 0.664 ± 0.005
318.15 K, x1 = 0.0961 | 0.694 ± 0.005
318.15 K, x1 = 0.1672 | 0.74 ± 0.005
318.15 K, x1 = 0.2118 | 0.772 ± 0.005
318.15 K, x1 = 0.2639 | 0.811 ± 0.005
318.15 K, x1 = 0.3122 | 0.849 ± 0.006
318.15 K, x1 = 0.3528 | 0.884 ± 0.006
318.15 K, x1 = 0.4228 | 0.946 ± 0.006
318.15 K, x1 = 0.4487 | 0.97 ± 0.006
318.15 K, x1 = 0.4941 | 1.015 ± 0.007
318.15 K, x1 = 0.5567 | 1.081 ± 0.007
318.15 K, x1 = 0.6184 | 1.152 ± 0.007
318.15 K, x1 = 0.6678 | 1.216 ± 0.008
318.15 K, x1 = 0.7127 | 1.271 ± 0.008
318.15 K, x1 = 0.7415 | 1.311 ± 0.008
318.15 K, x1 = 0.8179 | 1.424 ± 0.009
318.15 K, x1 = 0.8689 | 1.505 ± 0.01
318.15 K, x1 = 0.9013 | 1.56 ± 0.01
